Where “and” joins values, the source holds several entries; their conditions need not be identical. Equal entries are not always repeated. Entries after “also recorded” stand apart in the source; their conditions may differ. Where two headings read alike, the source gives them in different places. Marks after values point to notes of the source that are not given here.
Key:
[1] = system: 27 nucleotide fragment of bacterial 16S ribosomal RNA incorporating the A-site; test: ESI-FT-ICR MS detection of non-covalent ligand:16S RNA complexes (ion abundance relative to unbound RNA); type: binding; conditions: for affinity for 16S (order of magnitude): ESI-MS assay; for ion abundance of binary ligand:16S complex relative to unbound 16S RNA: 200 μM ligand, 5 μM target 16S RNA fragment
Protocol: In separate mixtures, 200 μM of three ligands IBIS-326611 ((2S)-2-amino-3-hydroxy-1-piperazinylpropan-1-one), IBIS-326645 (5-methyl-1-(2-oxo-2-piperazinylethyl)-1,3-dihydropyrimidine-2,4-dione) and a concatenated compound thereof, IBIS-271583 (1-{2-[(3R)-4-(2S)-2-amino-3-hydroxypropanoyl)-3-methylpiperazinyl]-2-oxoethyl}-5-methyl-1,3-dihydropyrimidine-2,4-dione) are each mixed with 5 μM of target 16S RNA fragment and analyzed by mass spectrometry. IBIS-326611 is shown in FIG. 5 to form a binary complex having an ion abundance 27.8% that of the unbound 16S RNA while IBIS-326645 in FIG. 6 forms a binary complex having an ion abundance 14.7% that of the unbound 16S RNA.
All MS experiments were performed by using an Apex II 70e ESI-FT-ICR MS (Bruker Daltonics, Billerica, Mass.) with an actively shielded 7 tesla superconducting magnet. RNA solutions were prepared in 50 mM NH4OAc (pH 7), mixed with 10% isopropanol to aid desolvation, and infused at a rate of 1.5 μL/min by using a syringe pump. Ions were formed in a modified electrospray source (Analytica, Branford, Conn.) by using an off-axis grounded electrospray probe positioned ca. 1.5 cm from the metallized terminus of the glass desolvation capillary biased at 5,000 V. A countercurrent flow of dry […] gas heated to 150° C. was used to assist in the desolvation process. Ions were accumulated in an external ion reservoir comprised of a radio frequency-only hexapole, a skimmer cone, and an auxiliary electrode for 1,000 ms before transfer into the trapped ion cell for mass analysis. Each spectrum was the result of the co-addition of 64 transients comprised of 524,288 data points acquired over a […] bandwidth, resulting in a 1.2-sec detection interval. All aspects of pulse sequence control, data acquisition, and postacquisition processing were performed by using a Bruker Daltonics data station running XMASS Version 4.0 on a Silicon Graphics (Mountain View, Calif.) R5000 computer.
RNA binding ligands are selected from a set of compounds using mass spectrometry. The RNA used for the target molecule is an RNA whose electrospray ionization properties have been optimized in conjunction with optimization of the electrospray ionization and desolvation conditions. […] A 50 μM stock solution of the RNA is purified, and dialyzed to remove sodium and potassium ions.
The compound set is pooled into mixtures of 8 members, each present at 1-10 mM in […]. A collection of these mixtures is diluted 1:50 into an aqueous solution containing 50-150 mM ammonium acetate buffer at pH 7.0, 1-5 μM RNA target, and 10-50% isopropanol, ethanol, or methanol to create the screening sample. The aqueous solution contains 100 μM each of 8 compounds, 50 mM ammonium acetate, 5 μM RNA target, and 25% isopropanol. These screening samples are arrayed in a 96-well microtiter plate, or added to individual vials for queuing into an automated robotic liquid hander under computer control by the mass spectrometer.
The source voltage potentials are adjusted to give stable electrospray ionization by monitoring the ion abundance of the free RNA. […] If available on the mass spectrometers, the partial gas pressure beyond the desolvation capillary is adjusted by throttling the pumping speed. This gas pressure may also be altered to optimize the ion abundance and observation of the ammonium ion adducts. After instrument performance has been optimized, the voltage potential between the capillary and skimmer lens is increased to reduce the abundance of the ion from the monoammonium-RNA complex to […] of the abundance of the ion from the RNA. These instrument parameters are used for detection of complexes between the RNA and compound set.
The compound set is screened for members that form non-covalent complexes with the RNA. […]

[2] = system: 27-mer fragment of ribosomal RNA comprising the 16S A-site; test: Mode of binding of ligand pairs by ESI-MS (presence or absence of ternary complex); set-up: species or system bacterial; conditions: for binding interaction of ligand pair 2-DOS / 3,5-DT on 16S RNA: 5 μM 16S, 100 μM 2-DOS, 0.5 mM 3,5-DT; for binding interaction of ligand pair 2-DOS / 2,4-diaminopyrimidine on 16S RNA: no ternary complex signal; for binding interaction of ligand pair Ibis-326732 / glucosamine on 16S RNA: 70 μM Ibis-326732, 100 μM glucosamine, 5 μM 16S RNA
From the text: Ligands bind competitively for a target when the binding of one ligand prevents the binding of the other ligand is the result of the ligands binding to the target at the same location. In this situation, the mixture contains an equilibrium of two binary complexes, one of which being one ligand bound to the target and the other being the other ligand bound to the target. The ligand having the greater affinity for the target will predominate and thus have higher signal intensity for its binary complex with the target compared to the other ligand. Competitive binding interaction between two ligands is determined according to methods of the invention by analyzing the mixture by mass-spectrometry to detect the presence or lack of signal corresponding to a ternary complex where both ligands are bound to the target at the same time. The lack of signal for a ternary complex indicates a competitive binding interaction between the two ligands while the presence of the signal indicates a non-competitive interaction.
Accordingly, in an aspect of the present invention, there is provided a method for determining the relative interaction between at least two ligands with respect to a target substrate. In practicing this method an amount of each of the ligands is mixed with an amount of the target substrate to form a mixture. This mixture is analyzed by mass spectrometry to determine the presence or absence of a ternary complex corresponding to the simultaneous adduction of two of the ligands with the target substrate.
Ligands bind concurrently when the binding of one ligand to the target is unaffected by the binding of the other and is a consequence of the ligands binding to the target at distinct sites. […] The ligand having the greater affinity for the target will have higher signal intensity for its binary complex with the target compared to the other ligand. […] Particularly, the absolute ion abundance of the ternary complex (TL1L2) is compared to the relative ion abundance of the binary complexes (TL1 and TL2) which contribute to the formation of the ternary complex with respect to the unbound target (TL1×TL2/T). Since there are two binary complexes contributing the formation of the ternary complex, the comparison is with the sum of the two contributing binary complexes i.e. TL1×TL2/T+TL2×TL1/T. If the absolute ion abundance of the ternary complex is equal to the sum of the relative ion abundance of the contributing binary complexes, then the two ligands concurrently bind to the target substrate. Expressed another way, a pair of ligands are concurrent binders for a target if in either of the following equivalent formulae the value of y is equal to zero: […]
In the compound collection used in Example 1, those compounds that formed complexes with the RNA target are pooled into groups of 4-10 and screened again as a mixture against the RNA target as outlined in Example 1. Since all of the compounds have been shown previously to bind to the RNA, three possible changes in the relative ion abundance are observed in the mass spectrometry assay. If two compounds bind at the same site, the ion abundance of the RNA complex for the weaker binder will be decreased through competition for RNA binding with the higher affinity binder (competitive binding). An example is presented in FIG. 3, where the ion abundance from a glucosamine-RNA complex is reduced as glucosamine is displaced from the RNA by addition of a benzimidazole compound. If two compounds can bind at distinct sites, signals will be observed from the respective binary complexes with the RNA and from the ternary complex where both compounds bind to the RNA simultaneously (concurrent binders). […] The relative ion abundance from the […] for 3,5-DT to the free RNA is measured, as is the relative ion abundance from the ternary complex between 3,5-DT, 2-DOS, and RNA and the binary complex. […]

[3] = target: 16S ribosomal RNA fragment (27mer RNA, SEQ ID NO:1); test: ESI-MS titration of 2-DOS against 16S, polynomial fit for dissociation constants; type: binding, bacterial; conditions: 4th order polynomial fit, 100 mM ammonium acetate buffer
Protocol: 2′-O-ACE protected 27mer RNA ([…]; SEQ ID NO:1) was purchased from Dharmacon Research (Boulder, Colo.). Aqueous solutions were deprotected for 30 min at 60° C. in a 0.1M tetramethylenediamine acetate buffer at pH 3.5. […] All chemicals were purchased from Aldrich Chemicals (Milwaukee), except for 2-deoxystreptamine and 3,5-diamino-1-N-methyl-triazole, which were prepared according to Georgiadis et al (J. Carbohydr. Chem. 1991, 10, 739-748) and Kaiser et al (U.S. Pat. No. 2,648,670). Ligands were added to the indicated final concentrations from 20 mM aqueous solutions.
Identical sample preparations were used for experiments with FTICR mass spectrometer. […] Sample was introduced at 1.0 μL/min and the capillary interface unheated. Ions were stored for 1.25 sec in a hexapole ion guide prior to transfer to the trapped ion cell. The indicated gas pressure over the vacuum pump situated below the hexapole ion guide was ˜8×10^−6 mbar. The parallel measurements of relative activation energy were performed with the FTICR mass spectrometer by varying the potential difference between the capillary exit and the first skimmer lens element. Typically, 32 1.2 sec transients of 512 k data points were summed prior to Fourier transformation and display.
2-deoxystreptamine (2-DOS) bound to 16S at multiple locations as a function of increasing concentration. At 0.33 mM, one 2-DOS bound 16S, generating an [M-5H^+]^5− complex observed at m/z 1758.9. Complexes corresponding to three and four 2-DOS molecules bound concurrently to 16S appeared at concentrations above 3.3 mM. Knowledge of the binding stoichiometry lead to the use of a fourth-order polynomial for calculation of the respective dissociation constants (KD) (Greig et al., J. Am. Chem. Soc. 1995, 117, 10765-10766).

[4] = system: 16S ribosomal RNA fragment; test: Relative solution affinities of ligand:16S complexes; type: binding, bacterial; conditions: normalized to the solution affinity of 4-aminobenzamidine

With `Nc1n[nH]c(N)n1` [3,5-DT, 3,5-diamino-1,2,4-triazole] the “affinity for 16S (order of magnitude)” value [1] was “˜mM affinities”, the “binding interaction of ligand pair 2-DOS / 3,5-DT on 16S RNA” value [2] was “cooperative binding; also recorded: concurrent binding” and the “binding interaction of ligand pair 2-DOS / 3,5-DT on 16S RNA” value ([2]; listed as DT) was “concurrent binding interaction”.

`N[C@@H](CO)C(=O)N1CCNCC1` [IBIS-326611, (2S)-2-amino-3-hydroxy-1-piperazinylpropan-1-one] was tested, and the “ion abundance of binary ligand:16S complex relative to unbound 16S RNA” value [1] was 27.8%.

`Cn1nc(N)nc1N` [3,5-diamino-1-N-methyltriazole] was tested, and the “complex with RNA target observed by ESI-MS” value [1] was “not observed”.

With `N[C@@H]1C[C@H](N)[C@@H](O)C(O)[C@H]1O` (stereo partly drawn) [2-DOS, 2-deoxystreptamine] the “affinity for 16S RNA compared with another ligand (ion abundance of binary complexes)” value [1] was “greater binding affinity for the target RNA than DT”, the “binding interaction of ligand pair 2-DOS / 3,5-DT on 16S RNA” value [2] was “concurrent binding interaction; also recorded: cooperative binding” and the “binding interaction of ligand pair 2-DOS / 2,4-diaminopyrimidine on 16S RNA” value [2] was “preferred sites overlap and 2-DOS displaces DAP for binding”. For the same compound, the Kd ([3]; read-out: KD of 2-DOS:16S complex (first 2-DOS)) was 610 µM and 600 µM, the Kd ([3]; read-out: KD of (2-DOS)2:16S complex (second 2-DOS)) was 1400 ± 100 µM and the Kd ([3]; read-out: KD of (2-DOS)3:16S complex (third 2-DOS)) was 4000 ± 1000 µM.

For `N=C(N)c1ccc(N)cc1` [ABA, 4-aminobenzamidine], the “Relative Soln. Affinity” value [4] was 1.00^b.

In the case of `N[C@H]1C(O)O[C@H](CO)[C@@H](O)[C@@H]1O` (stereo partly drawn) [GA, glucosamine], the “binding interaction of ligand pair Ibis-326732 / glucosamine on 16S RNA” value [2] is reported as “competitive binders”, the “Relative Soln. Affinity” value [4] is reported as “lower than GBI” and the “Relative Soln. Affinity” value ([4]; listed as Glucosamine) is reported as “.86 + 0.03”.

In the case of `Nc1cccc2nc(C3CCNCC3)[nH]c12` [Ibis-326732, 4-amino-2-piperidin-4-ylbenzimidazole], the “affinity for 16S RNA compared with another ligand (ion abundance of binary complexes)” value [1] is reported as “greater affinity than glucosamine” and the “binding interaction of ligand pair Ibis-326732 / glucosamine on 16S RNA” value [2] is reported as “competitive binders”.

With “1-{2-[(3R)-4-(2S)-2-amino-3-hydroxypropanoyl)-3-methylpiperazinyl]-2-oxoethyl}-5-methyl-1,3-dihydropyrimidine-2,4-dione [IBIS-271583]” the “affinity for 16S RNA compared with another ligand (ion abundance of binary complexes)” value [1] was “greater affinity for 16S than either parent compound”, the “ion abundance of binary ligand:16S complex relative to unbound 16S RNA” value [1] was 14.7% and the “ion abundance of binary ligand:16S complex relative to unbound 16S RNA” value ([1]; listed as IBIS-271483) was 52.4%. For the same compound, the “affinity for 16S RNA compared with another ligand (ion abundance of binary complexes)” value ([1]; listed as IBIS-271483) was “greater affinity for the target 16S RNA than either of the parent compounds”.

With `N=C(N)Nc1nc2ccccc2[nH]1` [GBI, 2-guanidylbenzimidazole] the “Relative Soln. Affinity” value [4] was “.99 + 0.02”.

In the case of `NN1CN(SCc2ccccc2)C=N1` [2-amino-4-benzylthio-1,2,4-triazole], the “complex with RNA target observed by ESI-MS” value [1] is reported as “seen”.

`Nc1ccnc(N)n1` [DAP, 2,4-diaminopyrimidine] was tested, and the “affinity for 16S (order of magnitude)” value [1] was “˜mM affinities”, the “binding interaction of ligand pair 2-DOS / 2,4-diaminopyrimidine on 16S RNA” value [2] was “preferred sites overlap and 2-DOS displaces DAP for binding” and the “Relative Soln. Affinity” value [4] was “.17 + 0.04”.

For `NC(=O)c1[nH]cnc1N` [AICA, 4-aminoimidazole-5-carboxamide], the “Relative Soln. Affinity” value [4] was “.26 + 0.04”.

Reference: patent US8188011B1, “Optimization of ligand affinity for RNA targets using mass spectrometry” (Isis Pharmaceuticals, Inc., priority 2000, dated 2012)
